This note sets out measurements from patent US20250144107A1, “USE OF A PIKFYVE INHIBITOR IN COMBINATION WITH IMMUNOTHERAPY” (The Regents of the University of Michigan, priority 2023, published 2025).

The subject of one test is KPC1361 cells. Nature of the test: MHC-I surface expression in Pikfyve-wildtype, Pikfyve-null, Atg5-null or Atg7-null cells. As to conditions: Pikfyve-wildtype cells, autophagy inhibition. It is filed as cell-based, mouse. The source says: FIG. 1F (Left) is line graphs of flow cytometry measuring MHC-I surface expression in KPC1361 cells with or without Pikfyve KO, treated with DMSO, Bafilomycin, chloroquine, Apilimod, or ESK981; (Right) is bar graphs of quantification of flow cytometry measuring MHC-I surface expression in KPC1361 cells with or without Pikfyve KO, treated with DMSO, Bafilomycin, chloroquine, Apilimod, or ESK981.
FIG. 1G (Left) is a line graph of flow cytometry measuring MHC-I surface expression in KPC1361 cells with non-targeting single-guide RNA (control), or single-guide RNAs depleting Atg5 or Atg7, treated with DMSO or Apilimod; (Right) is a bar graph of quantification of flow cytometry measuring MHC-I surface expression in KPC1361 cells with non-targeting single-guide RNA (control), or single-guide RNAs depleting Atg5 or Atg7, treated with DMSO or Apilimod.
Cancer cells or the OVA-expressing cancer cells treated in vitro were harvested from dishes, resuspended in buffer MACS (PBS containing 2% FBS and 2 mM EDTA), and stained with Zombie NIR™ Fixable Viability kit (BioLegend: #423106) and fluorophore-conjugated antibody against MHC-I or PE-conjugated antibody against SIINFEKL bound H-2Kb (BioLegend; catalog #141604), respectively. The cells were next washed twice with 1 ml MACS and fixed with 2% paraformaldehyde in PBS for 15 minutes at room temperature. The cells were then subjected to the flow cytometer (SONY SH800S) for measuring surface expression of MHC-I or SIINFEKL bound H-2Kb, respectively. Antibodies used in this study include anti-H-2Kb (BD Biosciences; catalog #553570) and anti-H-2Db (28-14-8; Thermo Fisher Scientific; catalog #12-5999-82) for KPC1361 and B16-F10, anti-H-2Kd (BD Biosciences; catalog #562004) and anti-H-2Dd (BD Biosciences; catalog #553580) for 4T1, anti-H-2Kq (BD Biosciences; catalog #742296) and anti-H-2Dq/H-2Lq (BD Biosciences; catalog #744853) for MyC-CaP, and anti-HLA-A,B,C (clone w6/32; BioLegend; catalog #311406) for human cancer cells.

A further test relates to cDCs. Nature of the test: Phenotype of cultured cDCs (flow cytometry, western blot). It is filed as cell-based, mice. The conditions noted are these: DCs in vitro, each agent. The method, then: FIG. 13G (Left) is a line graph of the relative median fluorescent intensity of the surface MHC-I on DMSO or apilimod-treated cDCs treated for 20 hours after 6 days of culture. FIG. 13G (Right) is a box and whisker plot of the surface MHC-I on DMSO or apilimod-treated cDCs treated for 20 hours after 6 days of culture
FIG. 13H a western blot showing the total vinculin, loading control, and total MHC-I in DMSO or apilimod-treated, 20 hours, cDC lysates after 6 days of culture.
FIG. 13K (Left) is a line graph of the relative median fluorescent intensity of the surface MHC-II on DMSO or apilimod-treated, 20 hours, cDCs treated after 6 days of culture. FIG. 13K (Right) is a box and whisker plot of the surface MHC-II on DMSO or apilimod-treated, 20 hours, cDCs treated after 6 days of culture.
FIG. 13L a western blot showing the total vinculin, loading control, and total MHC-II in DMSO or apilimod-treated, 20 hours, cDC lysates after 6 days of culture.
FIG. 13N a western blot showing the total histone H3, loading control, and total CD80 and CD86 in apilimod-treated, 20 hours, PIKfyve WT vs. KO cDC lysates after 6 days of culture.
FIG. 13P is a series of six scatter plots of surface CD80 and CD86 on DMSO or apilimod-treated cDCs, with or without 20 hours of PolyI:C, 50 μg/ml, or lipopolysaccharide (LPS), 50 ng/ml, treatment after 6 days of culture.
FIG. 13R a western blot showing the total vinculin, loading control, and total CD40 in DMSO or apilimod-treated, 20 hours, cDC lysates treated with or without additional LPS, 50 ng/ml, after 6 days of culture day 6.
FIG. 19B is a line graph of representative density plot of median fluorescent intensity of surface XCR1 in DMSO or apilimod-treated, 20 hours, cDCs after 6 days of culture.
FIG. 26G is a line graph of the relative median fluorescent intensity of the surface MHC-I, H2-kb, H2-kd, on DMSO or apilimod-treated cDCs with or without PolyI:C, 50 μg/ml or LPS, 50 ng/ml, treatment, 20 hours, after 6 days of culture.
FIG. 26H is a line graph of the relative median fluorescent intensity of the surface MHC-II, MHC-IA-IE, on DMSO or apilimod-treated cDCs with or without PolyI:C, 50 μg/ml or LPS, 50 ng/ml, treatment, 20 hours, after 6 days of culture.

The test system of another test is B16F10-OVA tumors. The test can be described thus: B16F10-OVA tumor model with PolyI:C adjuvant. It is filed as in vivo, mice. The conditions noted are these: treatment after inoculation, each agent alone. The method, then: FIG. 16F is a series of four line graphs of the Individual growth curves of subcutaneous B16F10-OVA tumor volume following 21 days of pre-treatment with vehicle versus apilimod, 30 mg/kg daily, with or without subcutaneous injection of water versus PolyI:C, 100 μg on Day 1 and Day 14.
FIG. 16H is a series of four line graphs of the Individual growth curves of subcutaneous B16F10-OVA tumor volume in mice treated with vehicle or apilimod, 30 mg/kg daily, with or without a subcutaneous injection of water versus PolyI:C, 100 μg once weekly.
FIG. 26I is a line graph of the subcutaneous tumor volume of B16F10-OVA tumors following 21 days of pre-treatment with vehicle versus apilimod, 30 mg/kg×5 days/week, with or without subcutaneous injection of water versus PolyI:C, 100 μg on Day 1 and Day 14.
FIG. 26J is a line graph of the subcutaneous tumor volume of B16F10-OVA tumors in mice treated with vehicle or apilimod, 30 mg/kg×5 days/week, with or without subcutaneous injection of water versus PolyI:C, 100 μg once weekly.

Turning to `CCN(CC)CCCC(C)Nc1ccnc2cc(Cl)ccc12` (centres unmarked) [chloroquine], the MHC-I surface expression entry with KPC1361 cells was “induced”.

For the compound PolyI:C, the “MHC-I and MHC-II expression” value with cDCs is “stimulated”. In addition, the tumor growth entry with B16F10-OVA tumors is “modest tumor growth inhibition”.

On to bafilomycin, for which the MHC-I surface expression result with KPC1361 cells is recorded as “induced”.

For the compound lipopolysaccharide [LPS], in the test with cDCs, the “MHC-I and MHC-II expression” value is “stimulated”.
